According to US20230266302A1, “SYNTHESIS AND USE OF N-BENZYL SULFONAMIDES” (THE UNIVERSITY OF TULSA, priority 2020, published 2023):

How the values were obtained:
Assay in all cases: ATP level assay (CellTiter-Glo), percent of control
Format in all cases: cell-based
H293 (kidney cancer) = conditions: two hour incubation; for activity at 100 µM: 2 h, compound alone, control DMSO, read-out: POC (percent of control) H293
Description: (§1) In the present method, the method of using the available assays has been modified to measure the short-term effect of compounds of interest on ATP levels in the cells. […] In the modified method, the control and test cells are initially treated with the metabolic inhibitor for a period of about thirty minutes to about four hours. Typically, the treatment of the cells with the metabolic inhibitor is for one hour prior to adding the compound to be screened for anti-cancer properties. However, simultaneous treatment with the metabolic inhibitor and the compound being screened should provide satisfactory results. […] ATP synthesis in cells occurs over multiple biochemical pathways. These pathways are very responsive to metabolic inhibitors and/or changes in available nutrients. By incorporating a metabolic inhibitor which is known to impact certain pathways, the disclosed method provides for measurement of a compound's direct effects on the remaining metabolic pathways available for ATP synthesis in the cell.
(§2) Following treatment of the control and test cells with the metabolic inhibitor, the method calls for addition of the compound to be screened for anti-cancer properties to the cells. Following addition of the compound of interest, the assay is allowed to continue for about one hour to about four hours or depending on the luminescing agent up to eighteen hours. However, approximately 60 minutes will be sufficient to determine the ATP inhibiting effect of the compound to be screened on the cells. Following completion of the selected time period, the ATP level within the cell is determined. ATP levels can be determined by luminescence according to standard measuring procedures, i.e. the luminescence level of the assay from the living cells treated with the two component composition is compared to the luminescence level of the assay from the living cells without the two component composition, i.e., the control experiment. Thus, the ATP levels are determined without killing the cells during the incubation of the cells in the presence of the compound of interest. As a result, the measured reduction in ATP level corresponds directly to the inhibition of the metabolic pathways uninhibited by the metabolic blocker.
(§3) A wide variety of ATP luminescing detection reagents are available commercially. So long as the reagent produces a luminescence in the presence of ATP, the reagent will be suitable for use in the present method. Suitable reagents include but are not limited to any ATP dependent luciferase such as but not limited to firefly luciferase, other modified luciferase based reagents, i.e. luciferase derivatives. According to the rapid method for determining the anti-cancer activity of a compound, a sample of living cells is distributed across a number of testing wells. Typically, 96-well plates are used; however, the number of wells is not critical to the current method. When using a 96-well plate the number of living cells will commonly be about 20,000. The sample wells contain a cell growth medium to promote cell health and growth and an additive to prevent bacterial contamination of the wells. One common example of the cell growth medium is DMEM with 10% FBS as described above. One example of the additive to prevent bacterial contamination is a solution of penicillin G and streptomycin referred to commonly as Pen-Strep. The Pen-Strep solution typically contains 5000 units of penicillin G and 5000 micrograms of streptomycin. Thus, the rapid determination of anti-cancer compounds can be carried out using the following method. • The desired number of cells are distributed in a 96-well plate containing 100 μL DMEM plus 10% FBS with optional Pen-Strep. • After 24 hours, cells are treated with the compound of interest or a 5% solution of dimethyl sulfoxide (DMSO) in water as a control. • The time period for exposure to the compound of interest and the DMSO control will vary depending on the luminescing detection reagent. […]

SkBr3 (breast cancer) = conditions: two hour incubation; for activity at 100 µM: Homo sapiens, SK-BR-3, 2 h, compound alone, control DMSO, read-out: POC (percent of control) SkBr3
Description: as §1, §2, §3

T47D (breast cancer) = conditions: two hour incubation; for activity at 100 µM: Homo sapiens, T47D, 2 h, compound alone, control DMSO, read-out: POC (percent of control) T47D
Description: as §1, §2, §3

MCF7 (breast cancer) = conditions: two hour incubation; for activity at 100 µM: Homo sapiens, MCF7, 2 h, compound alone, control DMSO, read-out: POC (percent of control) MCF7
Description: as §1, §2, §3

[1] = test system: MCF10A (non-cancerous breast); conditions: two hour incubation; for activity at 100 µM: Homo sapiens, MCF-10A, 2 h, compound alone, control DMSO, read-out: POC (percent of control) MCF10A
Description: as §1, §2, §3

HDF (normal cells) = conditions: two hour incubation; for activity at 100 µM: 2 h, compound alone, control DMSO, read-out: POC (percent of control) HDF
Description: as §1, §2, §3

NCI-H196 (lung cancer) = conditions: two hour incubation; for activity at 100 µM: NCI-H196, 2 h, compound alone, control DMSO, read-out: POC (percent of control) NCI-H196
Description: as §1, §2, §3

MDA-MB (breast cancer) = conditions: two hour incubation; for activity at 100 µM: 2 h, compound alone, control DMSO, read-out: POC (percent of control) MDA-MB
Description: as §1, §2, §3

HeLa (cervical cancer) = conditions: two hour incubation; for activity at 100 µM: Homo sapiens, HeLa, 2 h, compound alone, control DMSO, read-out: POC (percent of control) HeLa
Description: as §1, §2, §3

[2] = test system: BxPC3 (pancreatic cancer); conditions: two hour incubation; for activity at 100 µM: Homo sapiens, BXPC-3, 2 h, compound alone, control DMSO, read-out: POC (percent of control) BxPC3
Description: as §1, §2, §3

PC3 (prostate cancer) = conditions: two hour incubation; for activity at 100 µM: 2 h, compound alone, control DMSO, read-out: POC (percent of control) PC3
Description: as §1, §2, §3

[3] = compound 100 uM + 2DG (about 10-20 mM)
[4] = compound 100 uM + rotenone (approximately 1.25 μM)

| SMILES | activity at 100 µM (H293 (kidney cancer)) [%] | POC (percent of control) H293 (H293 (kidney cancer); [3]) | POC (percent of control) H293 (H293 (kidney cancer); [4]) | activity at 100 µM (SkBr3 (breast cancer)) [%] | POC (percent of control) SkBr3 (SkBr3 (breast cancer); [3]) | POC (percent of control) SkBr3 (SkBr3 (breast cancer); [4]) | activity at 100 µM (T47D (breast cancer)) [%] | POC (percent of control) T47D (T47D (breast cancer); [3]) | POC (percent of control) T47D (T47D (breast cancer); [4]) | activity at 100 µM (MCF7 (breast cancer)) [%] | POC (percent of control) MCF7 (MCF7 (breast cancer); [3]) | POC (percent of control) MCF7 (MCF7 (breast cancer); [4]) | activity at 100 µM [1] [%] | POC (percent of control) MCF10A [1, 3] | POC (percent of control) MCF10A [1, 4] | activity at 100 µM (HDF (normal cells)) [%] | POC (percent of control) HDF (HDF (normal cells); [3]) | POC (percent of control) HDF (HDF (normal cells); [4]) | activity at 100 µM (NCI-H196 (lung cancer)) [%] | POC (percent of control) NCI-H196 (NCI-H196 (lung cancer); [3]) | also measured |
| --- | --- | --- | --- | --- | --- | --- | --- | --- | --- | --- | --- | --- | --- | --- | --- | --- | --- | --- | --- | --- | --- |
| Cc1cccc2c(CNS(=O)(=O)c3ccc(Cl)cc3)c[nH]c12 [Compound 28, 4-chloro-N-[(7-methyl-1H-indol-3-yl)methyl]benzenesulfonamide] | 43.2 | 49% of control | 43.3% of control | 102 | 79.6% of control | 87.3% of control | 66.1 | 33.7% of control | 62.2% of control | 79 | 60.7% of control | 53.5% of control | 72.8 | 29.5% of control | 81.1% of control | 74.9 | 56.1% of control | 62.2% of control | 129 | 40.4% of control | POC (percent of control) NCI-H196 (NCI-H196 (lung cancer); [4]): 60.6% of control; activity at 100 µM (MDA-MB (breast cancer)): 77.4%; POC (percent of control) MDA-MB (MDA-MB (breast cancer); [3]): 45.5% of control; POC (percent of control) MDA-MB (MDA-MB (breast cancer); [4]): 78.1% of control; activity at 100 µM (HeLa (cervical cancer)): 57.7%; POC (percent of control) HeLa (HeLa (cervical cancer); [3]): 65.6% of control; POC (percent of control) HeLa (HeLa (cervical cancer); [4]): 96.1% of control; activity at 100 µM [2]: 40.4%; POC (percent of control) BxPC3 [2, 3]: 41.8% of control; POC (percent of control) BxPC3 [2, 4]: 44.6% of control; activity at 100 µM (PC3 (prostate cancer)): 31.8%; POC (percent of control) PC3 (PC3 (prostate cancer); [3]): 56.5% of control; POC (percent of control) PC3 (PC3 (prostate cancer); [4]): 64.8% of control |
| O=S(=O)(NCc1c[nH]c2ccccc12)c1ccccc1 [Compound 3, N-[(1H-indol-3-yl)methyl]benzenesulfonamide] | 74.3 | 42.8% of control | 69.3% of control | 72.8 | 79.4% of control | 97.1% of control | 34.9 | 37.1% of control | 58.7% of control | 105 | 74.5% of control | 97.3% of control | 62.5 | 72.7% of control | 110.5% of control | 84.5 | 72.7% of control | 91.9% of control | 89.6 | 55% of control | POC (percent of control) NCI-H196 (NCI-H196 (lung cancer); [4]): 89.2% of control; activity at 100 µM (MDA-MB (breast cancer)): 92.4%; POC (percent of control) MDA-MB (MDA-MB (breast cancer); [3]): 81.8% of control; POC (percent of control) MDA-MB (MDA-MB (breast cancer); [4]): 102.7% of control; activity at 100 µM (HeLa (cervical cancer)): 99.2%; POC (percent of control) HeLa (HeLa (cervical cancer); [3]): 67.6% of control; POC (percent of control) HeLa (HeLa (cervical cancer); [4]): 85.5% of control; activity at 100 µM [2]: 96.8%; POC (percent of control) BxPC3 [2, 4]: 84.5% of control; activity at 100 µM (PC3 (prostate cancer)): 85%; POC (percent of control) PC3 (PC3 (prostate cancer); [3]): 59.4% of control; POC (percent of control) PC3 (PC3 (prostate cancer); [4]): 65.1% of control |
| O=S(=O)(NCc1c[nH]c2cccc(Br)c12)c1ccc(Cl)cc1 [Compound 27, N-[(4-bromo-1H-indol-3-yl)methyl]-4-chlorobenzenesulfonamide] | 67 | 30.4% of control | 27.3% of control | 95.6 | 62.4% of control | 66% of control | 33.9 | 103.1% of control | 103.8% of control | 82.9 | 50.2% of control | 61.1% of control | 58.9 | 27.1% of control | 30.2% of control | 65 | 38% of control | 66.6% of control | 150 | 117.2% of control | POC (percent of control) NCI-H196 (NCI-H196 (lung cancer); [4]): 16.7% of control; activity at 100 µM (MDA-MB (breast cancer)): 62.6%; POC (percent of control) MDA-MB (MDA-MB (breast cancer); [3]): 27.3% of control; POC (percent of control) MDA-MB (MDA-MB (breast cancer); [4]): 37.3% of control; activity at 100 µM (HeLa (cervical cancer)): 58.3%; POC (percent of control) HeLa (HeLa (cervical cancer); [3]): 104.3% of control; POC (percent of control) HeLa (HeLa (cervical cancer); [4]): 73.3% of control; activity at 100 µM [2]: 42.8%; POC (percent of control) BxPC3 [2, 3]: 14.2% of control; POC (percent of control) BxPC3 [2, 4]: 15.8% of control; activity at 100 µM (PC3 (prostate cancer)): 43.1%; POC (percent of control) PC3 (PC3 (prostate cancer); [3]): 15.2% of control; POC (percent of control) PC3 (PC3 (prostate cancer); [4]): 27.2% of control |
